Experimental data published in patent US20040043377A1, “Evaluation method for predicting pharmacokinetics of PM using PM liver cells of drug metabolozing enzyme cytochrome P450 having a genetic polymorphism” (Pfizer Inc, priority 2002, published 2004).
Like-named read-outs stand apart in the source and are kept apart here.

What was measured:
[1] = test system: isolated EM liver cells (Lot 70); test: Dextromethorphan metabolism in cryopreserved isolated EM liver cells (Lot 70); format: in vitro ADME, human
Protocol: (§1) A preliminary test for evaluation metabolic reactions was conducted by selecting dextromethorphan (DM, analgesic agent) as the substrate of CYP2D6. Metabolism of DM in the clinical setting is known to proceed by N-demethylation, O-demethylation followed by glucuronic acid conjugation. CYP3A4 catalyzes the N-demethylation reaction, while CYP2D6 catalyzes the O-demethylation reaction. In PM of […], N-demethylation is known to proceed as a compensatory metabolic pathway of O-demethylation. In the present embodiment, metabolic reactions were examined for dextromethorphan using isolated PM liver cells of CYP2D6, and a discussion was made as to whether or not the pharmacokinetics of PM can be predicted.
(§2) The cryopreserved isolated PM liver cells of PM of CYP2D6 that were used (Lot 64) and the cryopreserved isolated EM liver cells (Lot 70) were prepared at In Vitro Technologies (IVT), USA. Liver cells for which the activity of CYP3A4 was roughly equal to that of Lot 64 of the cryopreserved isolated PM liver cells were selected by referring to data provided by IVT for use as the cryopreserved isolated EM liver cells. The acquired cells consisted of 6×10^6 cells per vial for both lots.
Krebs Henseleit buffer (adjusted to pH 7.4 following addition of calcium chloride dihydrate (0.373 g/L), sodium bicarbonate (2.1 g/L) and HEPES (1.5 g/L)) was used for the incubation medium. The cryopreserved human isolated liver cells were inoculated into a 96-well plate and used for testing while suspended in culture liquid. Dextromethorphan (DM), which is the substrate of CYP2D6, was added to the wells at final concentrations of 0.08, 0.4, 2, 10 and 50 μM and allowed to react at 37° C. The reaction liquid was sampled after 1 and 2 hours, and the parent compound (DM) along with dextrorphan (DEX: metabolite mainly produced by CYP2D6) and 3-methoxymorphinan (3-MM: metabolite mainly produced by CYP3A4) were respectively assayed. […]

[2] = clinical dose level (about 20 mg/body); cited from earlier work
[3] = test system: isolated PM liver cells of CYP2D6 (Lot 64); test: Dextromethorphan metabolism in cryopreserved isolated PM liver cells of CYP2D6 (Lot 64); format: in vitro ADME, human
Protocol: as §1, §2
Krebs Henseleit buffer (adjusted to pH 7.4 following addition of calcium chloride dihydrate (0.373 g/L), sodium bicarbonate (2.1 g/L) and HEPES (1.5 g/L)) was used for the incubation medium. The cryopreserved human isolated liver cells were inoculated into a 96-well plate and used for testing while suspended in culture liquid. Dextromethorphan (DM), which is the substrate of CYP2D6, was added to the wells at final concentrations of 0.08, 0.4, 2, 10 and 50 μM and allowed to react at 37° C. The reaction liquid was sampled after 1 and 2 hours, and the parent compound (DM) along with dextrorphan (DEX: metabolite mainly produced by CYP2D6) and 3-methoxymorphinan (3-MM: metabolite mainly produced by CYP3A4) were respectively assayed. In addition, with respect to assay of the conjugate (glucuronide), DEX obtained by hydrolysis following the addition of β-glucuronidase/allylsulfatase to the sampled reaction liquid was assayed, and the difference with DEX prior to hydrolysis was taken to be the amount of the conjugate. LC/MS/MS were used for analyzing the unchanged form and metabolites in the culture liquid.
Furthermore, LC/MS/MS were carried out under the measurement conditions described below. HPLC: Waters 2790, MS: API365 Sciex, column: YMC J′ sphere ODS L80 2×35 mm, gradient: mobile phase A [CH3CN:10 mM CH3CO2NH4 aqueous solution=10:90], mobile phase B [CH3CN:10 mM CH3CO2NH4 aqueous solution=80:20], conditions [mobile phase flow rate 0.35 ml/minute, composition of mobile phase changed from A:B=100:0 to A:B=0:100 1 minute after sample injection, followed by allowing composition of A:B=0:100 to flow for 1 minute], MS/MS detection: DM=272.3/170.9, DEX=258.2/157.1, 3-MM=258.2/215.0, MDZ=326.1/291.1, 4-OH MDZ=342.1/324.1.

CYP2D6 = CYP2D6 (Homo sapiens, UniProt P10635); conditions: cited from earlier work
PM liver microsomes = test: Metabolite formation in PM liver microsomes (Lot. No. HHM-0168); format: in vitro ADME, human
Protocol: Incubation reactions from the determination of the enzymatic kinetic parameters were carried out at a protein concentration of 0.2 mg/ml in 100 mM potassium phosphate, pH 7.4 containing 1.3 mM NADP^+, 0.93 mM NADH, 3.3 mM glucose-6-phosphate, 8 units/ml G-6-PDH, 3.3 mM MgCl2, and substrates. Reactions were initiated by the addition of NADP^+/NADH, and then terminated after 10 min incubation at 37° C. by the addition of ten-fold volume of acetonitrile containing an LC/MS/MS internal standard (Levallorphan at 100 ng/ml final conc.). The mixtures were centrifuged for 10 min, and supernatants were used for LC/MS/MS analyses to determine the production rates of metabolites.

Chain of CYP2D6 (P10635 whole entry): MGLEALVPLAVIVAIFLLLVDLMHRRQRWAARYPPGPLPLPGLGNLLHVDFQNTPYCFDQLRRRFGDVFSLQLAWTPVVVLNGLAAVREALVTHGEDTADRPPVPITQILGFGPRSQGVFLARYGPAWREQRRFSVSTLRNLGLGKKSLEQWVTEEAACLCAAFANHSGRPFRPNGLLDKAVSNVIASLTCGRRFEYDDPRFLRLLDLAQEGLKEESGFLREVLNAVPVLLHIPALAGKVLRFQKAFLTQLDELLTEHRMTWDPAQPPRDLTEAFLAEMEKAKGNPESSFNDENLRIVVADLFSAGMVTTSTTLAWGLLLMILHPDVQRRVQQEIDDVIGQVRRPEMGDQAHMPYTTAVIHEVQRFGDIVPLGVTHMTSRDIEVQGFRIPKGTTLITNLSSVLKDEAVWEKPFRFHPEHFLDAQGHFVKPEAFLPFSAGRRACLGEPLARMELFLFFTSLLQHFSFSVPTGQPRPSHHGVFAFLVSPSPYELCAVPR

## COc1ccc2c(c1)[C@]13CCCC[C@@H]1[C@H](C2)N(C)CC3 [DM, dextromethorphan]
[1]; EM liver cells
  formation rate of 3-MM relative to DEX formation rate: less than one-tenth
[1]; EM liver cells, DM 0.08-50 μM
  formation rate of metabolite DEX: increased concentration-dependently
[1]; isolated EM liver cells lot 70
  glucuronic acid conjugation reaction (DEX-glucuronide formation): clearly determined to proceed
[2]
  concentration of DM in the blood: up to 1 μM
[3]
  DEX formation: not detected
[3]; CYP2D6 PM liver cells
  3-MM formation rate versus EM liver cells: greater than that in EM liver cells
[3]; FIG. 5
  differences in 3-MM/1'OH-MDZ formation rate between PM and EM liver cells (hepatocytes): large
[3]; PM liver cells
  formation rate of 3-MM relative to DEX formation rate: comparable to the DEX formation rates
[3]; PM liver cells, DM 10 μM and 50 μM
  DEX formation: formation of DEX was observed
[3]; PM, in the vicinity of concentration of DM in the blood (up to 1 μM)
  DEX formation: only slight formation of DEX
[3]; isolated PM liver cells lot 64
  glucuronic acid conjugation reaction (DEX-glucuronide formation): clearly determined to proceed
CYP2D6
  Km: ~2 µM
PM liver microsomes; FIG. 6
  differences in 3-MM/1'OH-MDZ formation rate between PM and EM liver microsomes: not statically significance
PM liver microsomes; PM microsomes
  compensatory metabolic pathway: did not proceed
